Tests used:
Type in all cases: in vivo
corn (Zea mays) = assay: Test A postemergence, corn; details: Postemergence
Method in brief: (§1)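 Seeds are sown in loam mixed with sand and sprayed on the soil surface right after planting for the preemergence test. Postemergence pots are sprayed once seedlings reach 2 to 10 cm at the one- to two-leaf stage. The same surfactant-containing, non-phytotoxic solvent formulation serves both.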

[1] = tested on: wheat (Triticum aestivum); assay: Test A postemergence, wheat; details: Postemergence
Method in brief: (§2)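 Postemergence ratings come from foliar sprays onto one- to two-leaf plants of 2 to 10 cm grown in loam/sand; preemergence ratings come from a directed spray onto the soil of newly seeded pots. Formulation was a surfactant-containing non-phytotoxic solvent blend.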

[2] = tested on: ragweed (common ragweed, Ambrosia artemisiifolia); assay: Test A preemergence, ragweed; details: Preemergence; for Plant response rating, Ragweed: 0 to 100 scale (0 no effect, 100 complete control); for Ragweed plant response rating: 125 g ai/ha, visual injury on 0 to 100 scale (0 no effect, 100 complete control), approximately 10 days
Method in brief: as §1

[3] = tested on: galium (catchweed bedstraw, Galium aparine); assay: Test A postemergence, galium; details: Postemergence
Method in brief: as §2

[4] = tested on: pigweed (Amaranthus retroflexus); assay: Test A preemergence, pigweed; details: for Plant response rating, Pigweed: 0 to 100 scale (0 no effect, 100 complete control); for Pigweed plant response rating: 125 g ai/ha, visual injury on 0 to 100 scale (0 no effect, 100 complete control), approximately 10 days
Method in brief: as §2

[5] = tested on: pigweed (Amaranthus retroflexus); assay: Test A postemergence, pigweed; details: Postemergence
Method in brief: as §1

[6] = tested on: Foxtail, Giant (giant foxtail, Setaria faberi); assay: Test A preemergence, Foxtail, Giant; details: Preemergence; for Plant response rating, Foxtail, Giant: 0 to 100 scale (0 no effect, 100 complete control); for Foxtail, Giant plant response rating: 125 g ai/ha, visual injury on 0 to 100 scale (0 no effect, 100 complete control), approximately 10 days
Method in brief: as §1

[7] = tested on: Ryegrass, Italian (Italian ryegrass, Lolium multiflorum); assay: Test A postemergence, Ryegrass, Italian; details: Postemergence
Method in brief: as §1

[8] = tested on: ragweed (common ragweed, Ambrosia artemisiifolia); assay: Test A postemergence, ragweed; details: Postemergence
Method in brief: as §1

[9] = tested on: barnyardgrass (Echinochloa crus-galli); assay: Test A preemergence, barnyardgrass; details: Preemergence; for Plant response rating, Barnyardgrass: 0 to 100 scale (0 no effect, 100 complete control); for Barnyardgrass plant response rating: 125 g ai/ha, visual injury on 0 to 100 scale (0 no effect, 100 complete control), approximately 10 days
Method in brief: as §1

[10] = tested on: Foxtail, Giant (giant foxtail, Setaria faberi); assay: Test A postemergence, Foxtail, Giant; details: Postemergence
Method in brief: as §1

kochia (Bassia scoparia) [11] = assay: Test A preemergence, kochia; details: Preemergence; for Plant response rating, Kochia: 0 to 100 scale (0 no effect, 100 complete control); for Kochia plant response rating: 125 g ai/ha, visual injury on 0 to 100 scale (0 no effect, 100 complete control), approximately 10 days
Method in brief: as §1

[12] = tested on: Ryegrass, Italian (Italian ryegrass, Lolium multiflorum); assay: Test A preemergence, Ryegrass, Italian; details: Preemergence; for Plant response rating, Ryegrass, Italian: 0 to 100 scale (0 no effect, 100 complete control); for Ryegrass, Italian plant response rating: 125 g ai/ha, visual injury on 0 to 100 scale (0 no effect, 100 complete control), approximately 10 days
Method in brief: as §1

kochia (Bassia scoparia) [13] = assay: Test A postemergence, kochia; details: Postemergence
Method in brief: as §1

[14] = tested on: barnyardgrass (Echinochloa crus-galli); assay: Test A postemergence, barnyardgrass; details: Postemergence
Method in brief: as §2

[15] = tested on: blackgrass (Alopecurus myosuroides); assay: Test A postemergence, blackgrass; details: Postemergence
Method in brief: as §1

[16] = 31 g ai/ha, visual injury on 0 to 100 scale (0 no effect, 100 complete control), approx. 10 days
[17] = 125 g ai/ha, 0 to 100 scale (0 no effect, 100 complete control)
[18] = 31 g ai/ha, visual injury, approx. 10 days
[19] = 125 g ai/ha, visual injury approx. 10 days, 0 to 100 scale (0 no effect, 100 complete control)
[20] = 500 g ai/ha, visual injury vs untreated controls after approx. 10 days, 0 to 100 scale (0 no effect, 100 complete control)

Cc1cc(C)c(C(=O)N2CCCC(F)C2)cc1NS(=O)(=O)C(F)(F)F (stereo not drawn) [Compound 155]
Plant response rating, Corn (corn (Zea mays); [16]): 50
Plant response rating, Corn (corn (Zea mays); [17]): 90
Plant response rating, Wheat [1, 16]: 30
Plant response rating, Wheat [1, 17]: 60
Plant response rating, Ragweed [2, 18]: 90
Ragweed plant response rating [2]: 80
Plant response rating, Galium [3, 16]: 80
Plant response rating, Galium [3, 17]: 90
Plant response rating, Pigweed [4, 18]: 90
Pigweed plant response rating [4]: 100
Plant response rating, Pigweed [5, 16]: 80
Plant response rating, Pigweed [5, 17]: 90
Plant response rating, Foxtail, Giant [6, 18]: 50
Foxtail, Giant plant response rating [6]: 80
Plant response rating, Ryegrass, Italian [7, 16]: 40
Plant response rating, Ryegrass, Italian [7, 17]: 90
Plant response rating, Ragweed [8, 16]: 60
Plant response rating, Ragweed [8, 17]: 80
Plant response rating, Barnyardgrass [9, 18]: 50
Barnyardgrass plant response rating [9]: 90
Plant response rating, Foxtail, Giant [10, 16]: 20
Plant response rating, Foxtail, Giant [10, 17]: 30
Plant response rating, Kochia (kochia (Bassia scoparia) [11]; [18]): 30
Kochia plant response rating (kochia (Bassia scoparia) [11]): 40
Plant response rating, Ryegrass, Italian [12, 18]: 80
Ryegrass, Italian plant response rating [12]: 80
Plant response rating, Kochia (kochia (Bassia scoparia) [13]; [16]): 20
Plant response rating, Kochia (kochia (Bassia scoparia) [13]; [17]): 60
Plant response rating, Barnyardgrass [14, 16]: 90
Plant response rating, Barnyardgrass [14, 17]: 90
Plant response rating, Blackgrass [15, 16]: 10
Plant response rating, Blackgrass [15, 17]: 30

Cc1cc(C)c(N(S(=O)(=O)C(F)(F)F)S(=O)(=O)C(F)(F)F)cc1C1=NOC(C(C)(C)C)C1 (stereo not drawn) [Compound 127]
Plant response rating, Corn (corn (Zea mays); [19]): 0
Corn plant response rating (corn (Zea mays); [20]): 20
Plant response rating, Wheat [1, 19]: 0
Wheat plant response rating [1, 20]: 0
Ragweed plant response rating [2]: 0
Plant response rating, Ragweed ([2]; 500 g ai/ha): 60
Plant response rating, Galium [3, 19]: 20
Galium plant response rating [3, 20]: 90
Pigweed plant response rating [4]: 20
Plant response rating, Pigweed ([4]; 500 g ai/ha): 40
Plant response rating, Pigweed [5, 19]: 0
Pigweed plant response rating [5, 20]: 40
Foxtail, Giant plant response rating [6]: 20
Plant response rating, Foxtail, Giant ([6]; 500 g ai/ha): 90
Plant response rating, Ryegrass, Italian [7, 19]: 40
Ryegrass, Italian plant response rating [7, 20]: 50
Plant response rating, Ragweed [8, 19]: 20
Ragweed plant response rating [8, 20]: 50
Barnyardgrass plant response rating [9]: 50
Plant response rating, Barnyardgrass ([9]; 500 g ai/ha): 90
Plant response rating, Foxtail, Giant [10, 19]: 0
Foxtail, Giant plant response rating [10, 20]: 0
Kochia plant response rating (kochia (Bassia scoparia) [11]): 80
Plant response rating, Kochia (kochia (Bassia scoparia) [11]; 500 g ai/ha): 80
Ryegrass, Italian plant response rating [12]: 60
Plant response rating, Ryegrass, Italian ([12]; 500 g ai/ha): 80
Plant response rating, Kochia (kochia (Bassia scoparia) [13]; [19]): 10
Kochia plant response rating (kochia (Bassia scoparia) [13]; [20]): 40
Plant response rating, Barnyardgrass [14, 19]: 0
Barnyardgrass plant response rating [14, 20]: 70
Plant response rating, Blackgrass [15, 19]: 20
Blackgrass plant response rating [15, 20]: 20

Cc1cc(C)c(N2CC3(CCOCC3)OC2=O)cc1NS(=O)(=O)C(F)(F)F [Compound 156]
Plant response rating, Corn (corn (Zea mays); [16]): 0
Plant response rating, Corn (corn (Zea mays); [17]): 20
Plant response rating, Wheat [1, 16]: 30
Plant response rating, Wheat [1, 17]: 40
Plant response rating, Ragweed [2, 18]: 60
Ragweed plant response rating [2]: 90
Plant response rating, Galium [3, 16]: 100
Plant response rating, Galium [3, 17]: 100
Plant response rating, Pigweed [4, 18]: 80
Pigweed plant response rating [4]: 100
Plant response rating, Pigweed [5, 16]: 60
Plant response rating, Pigweed [5, 17]: 90
Plant response rating, Foxtail, Giant [6, 18]: 50
Foxtail, Giant plant response rating [6]: 100
Plant response rating, Ryegrass, Italian [7, 16]: 0
Plant response rating, Ryegrass, Italian [7, 17]: 10
Plant response rating, Ragweed [8, 16]: 90
Plant response rating, Ragweed [8, 17]: 90
Plant response rating, Barnyardgrass [9, 18]: 70
Barnyardgrass plant response rating [9]: 100
Plant response rating, Foxtail, Giant [10, 16]: 30
Plant response rating, Foxtail, Giant [10, 17]: 70
Plant response rating, Kochia (kochia (Bassia scoparia) [11]; [18]): 30
Kochia plant response rating (kochia (Bassia scoparia) [11]): 50
Plant response rating, Ryegrass, Italian [12, 18]: 50
Ryegrass, Italian plant response rating [12]: 70
Plant response rating, Kochia (kochia (Bassia scoparia) [13]; [16]): 40
Plant response rating, Kochia (kochia (Bassia scoparia) [13]; [17]): 70
Plant response rating, Barnyardgrass [14, 16]: 90
Plant response rating, Barnyardgrass [14, 17]: 90
Plant response rating, Blackgrass [15, 16]: 0
Plant response rating, Blackgrass [15, 17]: 40

— US20230278972A1, “SUBSTITUTED HALOALKYL SULFONANILIDE HERBICIDES” (FMC Corporation, priority 2020, published 2023)
